Test results published in article PMC6150237, “Study of Absorption Characteristics of the Total Saponins from Radix Ilicis Pubescentis in an In Situ Single-Pass Intestinal Perfusion (SPIP) Rat Model by Using Ultra Performance Liquid Chromatography (UPLC)” (Molecules : A Journal of Synthetic Chemistry and Natural …, 2017).

How the values were obtained:
rat duodenum = assay: SPIP of MDQ-TS with or without amantadine (endocytosis inhibitor); type: in vivo; conditions: MDQ-TS 2.5 mg/mL, amantadine 2.5 mmol·L^−1
Procedure: (§1) MDQ-TS perfusion samples at low, middle, and high concentration levels of 1.25, 2.5, and 5.0 mg·mL^−1 were prepared by separately dissolving MDQ-TS in the minimum amount of DMSO and diluted with K-R buffer solution. The amount of DMSO was 0.5% in the final perfusion solutions. C1, C2, C3, C4, DC1, and DC2 perfusion samples with the concentration equivalent to the amount contained in 2.5 mg·mL^−1 of MDQ-TS were individually prepared in the same way. Verapamil, amantadine and EDTA were directly dissolved in the MDQ-TS perfusate with terminal concentrations of 200 μmol·L^−1, 2.5 mmol·L^−1, and 2.5 mmol·L^−1, accordingly, and used for investigating the mechanisms involved for absorption.
(§2) In situ single-pass intestinal perfusion (SPIP) studies were performed using an experimental design adapted from the literature with some modifications. Briefly, male Sprague-Dawley rats weighing 180–220 g were acclimatized for at least one week before the experiment, and fasted for 18 h with free access to water before the perfusion experiment. Rats were anesthetized with an intraperitoneal injection of urethane (30 mg·kg^−1 body weight), and kept on a homeothermic blanket to maintain normal body temperature. The abdomen was opened with a midline longitudinal incision, and three segments of rat intestine (duodenum, jejunum, and ileum) of approximately 10 cm each were carefully cannulated on two ends with plastic tubing. Initially, the perfusion solution free of drug (37 °C) was pumped by peristaltic pump (BT100-1F, Longer Pump Co., Baoding, China) through the cannulated segments at a flow rate of 1 mL/min for approximately 30 min in order to clean out any residual debris. Secondly, the perfusion solution containing a known concentration of substance (C1, C2, C3, C4, DC1, DC2, and MDQ-TS) was perfused at 37 °C through the intestinal lumen at a constant flow rate of 0.2 mL/min. The first 20 min of period corresponds to steady state, i.e., when the substance is in equilibrium with the intestinal membrane. After steady state, samples were collected from distal portion of duodenum, jejunum and ileum at 10 min intervals (0–10, 10–20, 20–30, 30–40, 40–50, 50–60 min) in pre-weighted vials. Samples were immediately frozen at −20 °C until analysis by validated UPLC. During the experiment, care was taken to avoid disturbance of the circulatory system and the exposed segment was covered with a piece of sterilized gauze to keep it warm and moist by frequent application of warm (37 °C) saline. The intestinum tenue maintained its viability and intact state without disrupting the blood supply throughout the experimental period. Finally, animals were sacrificed after depth anesthesia by intraperitoneal injection of urethane, according to protocols for euthanasia in experimental animals. After death, the intestinal segment was removed for measurements of length and inside diameter.
The net water flux in the in situ perfusion studies (water absorption and efflux in the intestinal segment) was determined by gravimetric method. The effective absorption rate constant (Ka) and effective apparent permeability (Papp) of compounds in the intestinal segments were calculated according to the following mathematical expression:(1) Ka=(1−CoutQout/CinQin)Q/V (2) Papp=−Qln(CoutQout/CinQin)/2πrl where Cin and Cout are the concentration of test drug in the effluent perfusate through the inlet and outlet tube (μg·mL^−1), respectively. Qin and Qout represent the inlet and outlet volume of effluent perfusate (mL), respectively. Q is the volume flow rate of perfusion (mL·h^−1). V is the volume of the intestinal segment concerned (mL). 2πrl is the area of the mass transfer surface of intestinal segment concerned (cm^2). […]

[1] = In situ single-pass intestinal perfusion (SPIP), saponins administrated in monomer forms; type: in vivo; conditions: male, Sprague-Dawley, rat, other: in situ single-pass intestinal perfusion
Procedure: as §1, §2
(§3) The net water flux in the in situ perfusion studies (water absorption and efflux in the intestinal segment) was determined by gravimetric method. The effective absorption rate constant (Ka) and effective apparent permeability (Papp) of compounds in the intestinal segments were calculated according to the following mathematical expression:(1) Ka=(1−CoutQout/CinQin)Q/V (2) Papp=−Qln(CoutQout/CinQin)/2πrl where Cin and Cout are the concentration of test drug in the effluent perfusate through the inlet and outlet tube (μg·mL^−1), respectively. Qin and Qout represent the inlet and outlet volume of effluent perfusate (mL), respectively. Q is the volume flow rate of perfusion (mL·h^−1). V is the volume of the intestinal segment concerned (mL). 2πrl is the area of the mass transfer surface of intestinal segment concerned (cm^2).

[2] = system: rat small intestine (duodenum, jejunum, ileum); assay: as above; type: in vivo; conditions: for Ka / Papp: monomer form, n = 5; for permeability classification: monomers, Papp > 0.12 × 10^−2 cm·min^−1 classified as completely absorbed (highly permeable)
Procedure: as §1, §2, §3

[3] = In situ single-pass intestinal perfusion (SPIP), saponins administrated in MDQ-TS form; type: in vivo, rat; conditions: male, Sprague-Dawley, rat, other: in situ single-pass intestinal perfusion
Procedure: as §1, §2, §3

[4] = system: rat small intestine (duodenum, jejunum, ileum); assay: as above; type: in vivo; conditions: n = 5
Procedure: as §1, §2, §3

[5] = cited from earlier work
[6] = administered in monomer forms, summary bound
[7] = monomer form, duodenum, concentration equivalent to 2.5 mg·mL^−1 MDQ-TS, n = 5
[8] = duodenum, concentration equivalent to 2.5 mg·mL^−1 MDQ-TS
[9] = MDQ-TS form 1.25 mg·mL^−1, duodenum, n = 5
[10] = MDQ-TS form 1.25 mg·mL^−1, ileum, n = 5
[11] = MDQ-TS form 1.25 mg·mL^−1, jejunum, n = 5
[12] = MDQ-TS form 2.5 mg·mL^−1, duodenum, n = 5
[13] = MDQ-TS form 2.5 mg·mL^−1, ileum, n = 5
[14] = MDQ-TS form 2.5 mg·mL^−1, jejunum, n = 5
[15] = MDQ-TS form 5.0 mg·mL^−1, duodenum, n = 5
[16] = MDQ-TS form 5.0 mg·mL^−1, ileum, n = 5
[17] = MDQ-TS form 5.0 mg·mL^−1, jejunum, n = 5
[18] = administrated in MDQ-TS form, summary bound (except DC2 in 1.25 mg·mL^−1 MDQ-TS group)
[19] = MDQ-TS form 1.25 mg·mL^−1, duodenum
[20] = MDQ-TS form 1.25 mg·mL^−1, ileum
[21] = MDQ-TS form 1.25 mg·mL^−1, jejunum
[22] = MDQ-TS form 2.5 mg·mL^−1, duodenum
[23] = MDQ-TS form 2.5 mg·mL^−1, ileum
[24] = MDQ-TS form 2.5 mg·mL^−1, jejunum
[25] = MDQ-TS form 5.0 mg·mL^−1, duodenum
[26] = MDQ-TS form 5.0 mg·mL^−1, ileum
[27] = MDQ-TS form 5.0 mg·mL^−1, jejunum

| SMILES | decrease of absorption compared with non-Amantadine added group (rat duodenum) [%] | Papp [1, 6] [×10⁻⁶ cm/s] | Papp [1, 7] [×10⁻⁶ cm/s] | Papp ([1]; monomer form, ileum, n = 5) [×10⁻⁶ cm/s] | Papp ([1]; monomer form, jejunum, n = 5) [×10⁻⁶ cm/s] | Ka [2, 8] | Ka ([2]; ileum) | Ka ([2]; jejunum) | permeability classification [2] | Papp [3, 9] [×10⁻⁶ cm/s] | Papp [3, 10] [×10⁻⁶ cm/s] | Papp [3, 11] [×10⁻⁶ cm/s] | Papp [3, 12] [×10⁻⁶ cm/s] | Papp [3, 13] [×10⁻⁶ cm/s] | Papp [3, 14] [×10⁻⁶ cm/s] | Papp [3, 15] [×10⁻⁶ cm/s] | Papp [3, 16] [×10⁻⁶ cm/s] | Papp [3, 17] [×10⁻⁶ cm/s] | Papp [3, 18] [×10⁻⁶ cm/s] | Ka [4, 19] | other results |
| --- | --- | --- | --- | --- | --- | --- | --- | --- | --- | --- | --- | --- | --- | --- | --- | --- | --- | --- | --- | --- | --- |
| C[C@@H]1CC[C@]2(C(=O)O)CC[C@]3(C)C(=CC[C@@H]4[C@@]5(C)CC[C@H](O)[C@@](C)(C(=O)O)[C@@H]5CC[C@]43C)[C@@H]2[C@]1(C)O [C1, ilexgenin A] | 40 | > 20 | 55 | 50 | 58.3 | 1.77 ± 0.17 ×10^−2 min^−1 | 1.50 ± 0.25 ×10^−2 min^−1 | 1.65 ± 0.19 ×10^−2 min^−1 | highly permeable | 36.7 | 25 | 28.3 | 50 | 68.3 | 55 | 56.7 | 41.7 | 61.7 | > 20 | 1.86 ± 0.73 ×10^−2 min^−1 | Ka [4, 20]: 0.89 ± 0.08 ×10^−2 min^−1; Ka [4, 21]: 0.95 ± 0.28 ×10^−2 min^−1; Ka [4, 22]: 1.70 ± 0.31 ×10^−2 min^−1; Ka [4, 23]: 2.90 ± 0.37 ×10^−2 min^−1; Ka [4, 24]: 2.23 ± 0.39 ×10^−2 min^−1; Ka [4, 25]: 1.68 ± 0.74 ×10^−2 min^−1; Ka [4, 26]: 1.48 ± 0.76 ×10^−2 min^−1; Ka [4, 27]: 2.30 ± 1.24 ×10^−2 min^−1; absolute oral bioavailability ([5]; calculated based on literature data): low value; maximum plasma concentration ([5]; oral administration of C1, 100 mg/kg): approximately 350 ng·mL^−1 |
| CC1CCC2(C(=O)OC3OC(CO)C(O)C(O)C3O)CCC3(C)C(=CCC4C5(C)CCC(O)C(C)(C(=O)O)C5CCC43C)C2C1(C)O (stereo not drawn) [C2, ilexsaponin A1] | 71 | > 20 | 40 | 41.7 | 41.7 | 1.40 ± 0.29 ×10^−2 min^−1 | 1.62 ± 0.32 ×10^−2 min^−1 | 1.72 ± 0.16 ×10^−2 min^−1 | highly permeable | 28.3 | 23.3 | 28.3 | 45 | 46.7 | 43.3 | 36.7 | 23.3 | 33.3 | > 20 | 1.10 ± 0.40 ×10^−2 min^−1 | Papp ([2]; ileum): 0.25 ± 0.03 ×10^−2 cm·min^−1; Papp ([2]; jejunum): 0.25 ± 0.01 ×10^−2 cm·min^−1; Ka [4, 20]: 1.61 ± 0.37 ×10^−2 min^−1; Ka [4, 21]: 0.74 ± 0.25 ×10^−2 min^−1; Ka [4, 22]: 0.85 ± 0.20 ×10^−2 min^−1; Ka [4, 23]: 1.89 ± 0.35 ×10^−2 min^−1; Ka [4, 24]: 0.68 ± 0.18 ×10^−2 min^−1; Ka [4, 25]: 1.13 ± 0.62 ×10^−2 min^−1; Ka [4, 26]: 0.85 ± 0.27 ×10^−2 min^−1; Ka [4, 27]: 1.21 ± 0.51 ×10^−2 min^−1 |
